Measured values reported in US20250163104A1, “MACROCYCLIC IMMUNOMODULATORS” (priority 2021, published 2025).
Where a SMILES comes first, the peptide text is derived from it. Bridges are numbered along the chain shown (N, C = ends). [ ]: non-standard residue; d: D form. The star is where a group is joined. ξ: configuration not given here. Phe(4-CONH2) = NC(=O)c1ccc(C[C@H](N)C(=O)O)cc1; Phe(4-COOH) = N[C@@H](Cc1ccc(C(=O)O)cc1)C(=O)O; Bip = N[C@@H](Cc1ccc(-c2ccccc2)cc1)C(=O)O; Phe(3-CN) = N#Cc1cccc(C[C@H](N)C(=O)O)c1; Phe(3-Me) = Cc1cccc(C[C@H](N)C(=O)O)c1; Val(3-OH) = CC(C)(O)[C@H](N)C(=O)O; 4Pal = N[C@@H](Cc1ccncc1)C(=O)O; 2Thi = N[C@@H](Cc1cccs1)C(=O)O; 3Thi = N[C@@H](Cc1ccsc1)C(=O)O; Cha = N[C@@H](CC1CCCCC1)C(=O)O; Ile(3ξ) = CCC(C)[C@H](N)C(=O)O; Thr(3ξ) = CC(O)[C@H](N)C(=O)O; Carboxymethyl = O=C(O)C*; Orn = NCCC[C@H](N)C(=O)O; Dab = NCC[C@H](N)C(=O)O

What follows are compounds tested against T1, human PD-1 / PD-L1-Ig binding on Jurkat cell line over-expressing human PD-1 (Jurkat-PD-1) (Homo sapiens, UniProt Q15116) (assay: Jurkat-PD-1 Cell Binding High-Content Screening Assay (CBA)). Conditions: Jurkat HPD1_PDL1 IC50, Jurkat-PD-1 cells, PE-labeled PD-L1-Ig 20 nM final.
T1 construct: expressed in transfected cells; host or cells: Jurkat
T1 sequence (Q15116 25-288): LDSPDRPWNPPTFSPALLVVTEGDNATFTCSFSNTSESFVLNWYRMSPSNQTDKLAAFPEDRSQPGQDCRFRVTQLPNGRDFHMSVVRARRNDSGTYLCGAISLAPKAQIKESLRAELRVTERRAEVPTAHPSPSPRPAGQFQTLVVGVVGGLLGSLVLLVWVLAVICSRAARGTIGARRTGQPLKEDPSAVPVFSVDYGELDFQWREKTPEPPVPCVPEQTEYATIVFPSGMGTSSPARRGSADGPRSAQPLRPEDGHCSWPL
Assay type: cell-based
Procedure, shortened: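 Jurkat-hPD-1 cells in DMEM with 10% fetal calf serum receive test compound and are held at 37° C for 2 h. PE-labeled PD-L1-Ig is added at 20 nM final and left for 1 hour. Cells are then fixed and Hoechst-stained, and binding is measured by imaging.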
Compound `CCC(C)[C@@H]1NC(=O)[C@H](Cc2ccc(-c3ccccc3)cc2)NC(=O)[C@H](CC(C)C)NC(=O)[C@H](Cc2cccc(C)c2)NC(=O)[C@H](CC(=O)O)NC(=O)[C@H](Cc2ccc(C(=O)O)cc2)NC(=O)[C@H](Cc2ccncc2)NC(=O)CSC[C@@H](C(=O)N[C@H](C)C(N)=O)NC(=O)[C@H](C(C)O)NC(=O)[C@H](C(C)C)NC(=O)[C@H](CC2CCCCC2)NC(=O)[C@H](CCN)NC(=O)[C@@H](CC(C)C)NC(=O)[C@H](Cc2cnc[nH]2)NC1=O` (stereo partly drawn) [Compound 2611] ({CH2CO}-[4Pal][Phe(4-COOH)]D[Phe(3-Me)]L[Bip][Ile(3ξ)]H[dL][Dab][Cha]V[Thr(3ξ)]C[dA]-NH2; thioether N-14) has an IC50 of 19.2 nM.

Same assay, conditions: Jurkat-PD-1 cells, PE-labeled PD-L1-Ig 20 nM final; read-out: Jurkat HPD1_PDL1 IC50
Work on `CC(C)C[C@@H]1NC(=O)[C@H](Cc2c[nH]c3ccccc23)NC(=O)[C@H](CC(=O)O)NC(=O)[C@H](Cc2ccc(OCC(=O)O)cc2)NC(=O)[C@H](C(C)O)NC(=O)CSC[C@@H](C(N)=O)NC(=O)[C@H](CO)NC(=O)[C@H](C(C)C)NC(=O)[C@H](CC2CCCCC2)NC(=O)[C@H](Cc2cnc[nH]2)NC(=O)[C@@H](CC(C)C)NC(=O)[C@H](CCC(=O)O)NC(=O)[C@H](C(C)C)NC(=O)[C@H](Cc2ccc(-c3ccccc3)cc2)NC1=O` (stereo partly drawn) [Compound 2609] ({CH2CO}-[Thr(3ξ)]Y(Carboxymethyl)DWL[Bip]VE[dL]H[Cha]VSC-NH2; thioether N-14) yielded an IC50 of 89.1 nM.
`CC(C)C[C@@H]1NC(=O)[C@H](Cc2c[nH]c3ccccc23)NC(=O)[C@H](CC(=O)O)NC(=O)[C@H](Cc2ccc(OCC(=O)O)cc2)NC(=O)[C@H](C(C)O)NC(=O)CSC[C@@H](C(N)=O)NC(=O)[C@H](CO)NC(=O)[C@H](C(C)C)NC(=O)[C@H](CC2CCCCC2)NC(=O)[C@H](CCC(=O)O)NC(=O)[C@@H](CC(C)C)NC(=O)[C@H](Cc2cnc[nH]2)NC(=O)[C@H](C(C)C)NC(=O)[C@H](Cc2ccc(-c3ccccc3)cc2)NC1=O` (stereo partly drawn) [Compound 2610] ({CH2CO}-[Thr(3ξ)]Y(Carboxymethyl)DWL[Bip]VH[dL]E[Cha]VSC-NH2; thioether N-14) was tested, and the IC50 was 78.3 nM.
In the case of `CC(C)C[C@H]1NC(=O)[C@H](CCN)NC(=O)[C@H](C(C)C)NC(=O)[C@H](Cc2ccc(-c3ccccc3)cc2)NC(=O)[C@H](C(C)C)NC(=O)[C@H](Cc2c[nH]c3ccccc23)NC(=O)[C@H](CC(=O)O)NC(=O)[C@H](Cc2ccc(OCC(=O)O)cc2)NC(=O)[C@H](Cc2ccsc2)NC(=O)CSC[C@@H](C(=O)N[C@H](CC(N)=O)C(N)=O)NC(=O)[C@H](CCCCN)NC(=O)[C@H](C(C)C)NC(=O)[C@H](CC2CCCCC2)NC(=O)[C@H](CCN)NC1=O` [Compound 2612] ({CH2CO}-[3Thi]Y(Carboxymethyl)DWV[Bip]V[Dab][dL][Dab][Cha]VKC[dN]-NH2; thioether N-14), the IC50 is reported as 5.9 nM.
Compound `CC(=O)NCCCC[C@@H]1NC(=O)[C@H](C(C)C)NC(=O)[C@H](CC2CCCCC2)NC(=O)[C@H](CCN)NC(=O)[C@@H](CC(C)C)NC(=O)[C@H](CCN)NC(=O)[C@H](C(C)C)NC(=O)[C@H](Cc2ccc(-c3ccccc3)cc2)NC(=O)[C@H](C(C)C)NC(=O)[C@H](Cc2c[nH]c3ccccc23)NC(=O)[C@H](CC(=O)O)NC(=O)[C@H](Cc2ccc(OCC(=O)O)cc2)NC(=O)[C@H](Cc2ccsc2)NC(=O)CSC[C@@H](C(=O)N[C@@H](CCN)C(N)=O)NC1=O` [Compound 2613] ({CH2CO}-[3Thi]Y(Carboxymethyl)DWV[Bip]V[Dab][dL][Dab][Cha]VK(Ac)C[Dab]-NH2; thioether N-14) has an IC50 of 11 nM.
`CC(C)C[C@H]1NC(=O)[C@H](CCN)NC(=O)[C@H](C(C)C)NC(=O)[C@H](Cc2ccc(-c3ccccc3)cc2)NC(=O)[C@H](C(C)C)NC(=O)[C@H](Cc2c[nH]c3ccccc23)NC(=O)[C@H](CC(=O)O)NC(=O)[C@H](Cc2ccc(OCC(=O)O)cc2)NC(=O)[C@H](Cc2ccsc2)NC(=O)CSC[C@@H](C(N)=O)NC(=O)[C@H](CCCCN)NC(=O)[C@H](C(C)C)NC(=O)[C@H](CC2CCCCC2)NC(=O)[C@H](CCN)NC1=O` [Compound 2614] ({CH2CO}-[3Thi]Y(Carboxymethyl)DWV[Bip]V[Dab][dL][Dab][Cha]VKC-NH2; thioether N-14) was tested, and the IC50 was 7 nM.
In the case of `Cc1cccc(C[C@@H]2NC(=O)[C@H](CC(=O)O)NC(=O)[C@H](Cc3ccc(OCC(=O)O)cc3)NC(=O)[C@H](Cc3ccsc3)NC(=O)CSC[C@@H](C(=O)N[C@@H](CCN)C(N)=O)NC(=O)[C@H](CO)NC(=O)[C@H](C(C)(C)O)NC(=O)[C@H](CC3CCCCC3)NC(=O)[C@H](CCN)NC(=O)[C@@H](CC(C)C)NC(=O)[C@H](CCCN)NC(=O)[C@H](Cc3ccc(OCC(=O)O)cc3)NC(=O)[C@H](Cc3ccc(-c4ccccc4)cc3)NC(=O)[C@H](Cc3ccc(OCC(=O)O)cc3)NC2=O)c1` [Compound 2615] ({CH2CO}-[3Thi]Y(Carboxymethyl)D[Phe(3-Me)]Y(Carboxymethyl)[Bip]Y(Carboxymethyl)[Orn][dL][Dab][Cha][Val(3-OH)]SC[Dab]-NH2; thioether N-14), the IC50 is reported as 3.7 nM.
In the case of `Cc1cccc(C[C@@H]2NC(=O)[C@H](CC(=O)O)NC(=O)[C@H](Cc3ccc(C(=O)O)cc3)NC(=O)[C@H](Cc3ccsc3)NC(=O)CSC[C@@H](C(=O)N[C@@H](CCN)C(N)=O)NC(=O)[C@H](CO)NC(=O)[C@H](C(C)(C)O)NC(=O)[C@H](CC3CCCCC3)NC(=O)[C@H](CCN)NC(=O)[C@@H](CC(C)C)NC(=O)[C@H](CCCN)NC(=O)[C@H](Cc3ccc(OCC(=O)O)cc3)NC(=O)[C@H](Cc3ccc(-c4ccccc4)cc3)NC(=O)[C@H](Cc3ccc(OCC(=O)O)cc3)NC2=O)c1` [Compound 2617] ({CH2CO}-[3Thi][Phe(4-COOH)]D[Phe(3-Me)]Y(Carboxymethyl)[Bip]Y(Carboxymethyl)[Orn][dL][Dab][Cha][Val(3-OH)]SC[Dab]-NH2; thioether N-14), the IC50 is reported as 3.1 nM.
`Cc1cccc(C[C@@H]2NC(=O)[C@H](CC(=O)O)NC(=O)[C@H](Cc3ccc(C(=O)O)cc3)NC(=O)[C@H](Cc3ccncc3)NC(=O)CSC[C@@H](C(=O)N[C@@H](CCN)C(N)=O)NC(=O)[C@H](CO)NC(=O)[C@H](C(C)(C)O)NC(=O)[C@H](CC3CCCCC3)NC(=O)[C@H](CCN)NC(=O)[C@@H](CC(C)C)NC(=O)[C@H](CCCN)NC(=O)[C@H](Cc3ccc(OCC(=O)O)cc3)NC(=O)[C@H](Cc3ccc(-c4ccccc4)cc3)NC(=O)[C@H](Cc3ccc(OCC(=O)O)cc3)NC2=O)c1` [Compound 2622] ({CH2CO}-[4Pal][Phe(4-COOH)]D[Phe(3-Me)]Y(Carboxymethyl)[Bip]Y(Carboxymethyl)[Orn][dL][Dab][Cha][Val(3-OH)]SC[Dab]-NH2; thioether N-14) was tested, and the IC50 was 2.7 nM.
Compound `Cc1cccc(C[C@@H]2NC(=O)[C@H](CC(=O)O)NC(=O)[C@H](Cc3ccc(OCC(=O)O)cc3)NC(=O)[C@H](Cc3ccncc3)NC(=O)CSC[C@@H](C(=O)N[C@@H](CCN)C(N)=O)NC(=O)[C@H](CO)NC(=O)[C@H](C(C)(C)O)NC(=O)[C@H](CC3CCCCC3)NC(=O)[C@H](CCN)NC(=O)[C@@H](CC(C)C)NC(=O)[C@H](CCCN)NC(=O)[C@H](Cc3ccc(O)cc3)NC(=O)[C@H](Cc3ccc(-c4ccccc4)cc3)NC(=O)[C@H](Cc3ccc(C(N)=O)cc3)NC2=O)c1` [Compound 2623] ({CH2CO}-[4Pal]Y(Carboxymethyl)D[Phe(3-Me)][Phe(4-CONH2)][Bip]Y[Orn][dL][Dab][Cha][Val(3-OH)]SC[Dab]-NH2; thioether N-14) has an IC50 of 4.6 nM.
Work on `Cc1cccc(C[C@@H]2NC(=O)[C@H](CC(=O)O)NC(=O)[C@H](Cc3ccc(C(=O)O)cc3)NC(=O)[C@H](Cc3ccncc3)NC(=O)CSC[C@@H](C(=O)N[C@@H](CCN)C(N)=O)NC(=O)[C@H](CO)NC(=O)[C@H](C(C)(C)O)NC(=O)[C@H](CC3CCCCC3)NC(=O)[C@H](CCN)NC(=O)[C@@H](CC(C)C)NC(=O)[C@H](CCCN)NC(=O)[C@H](Cc3ccc(OCC(=O)O)cc3)NC(=O)[C@H](Cc3ccc(-c4ccccc4)cc3)NC(=O)[C@H](Cc3ccc(C(=O)O)cc3)NC2=O)c1` [Compound 2624] ({CH2CO}-[4Pal][Phe(4-COOH)]D[Phe(3-Me)][Phe(4-COOH)][Bip]Y(Carboxymethyl)[Orn][dL][Dab][Cha][Val(3-OH)]SC[Dab]-NH2; thioether N-14) yielded an IC50 of 5.7 nM.
Work on `Cc1cccc(C[C@@H]2NC(=O)[C@H](CC(=O)O)NC(=O)[C@H](Cc3ccc(C(=O)O)cc3)NC(=O)[C@H](Cc3cccs3)NC(=O)CSC[C@@H](C(=O)N[C@@H](CCN)C(N)=O)NC(=O)[C@H](CO)NC(=O)[C@H](C(C)(C)O)NC(=O)[C@H](CC3CCCCC3)NC(=O)[C@H](CCN)NC(=O)[C@@H](CC(C)C)NC(=O)[C@H](CCCN)NC(=O)[C@H](Cc3ccc(OCC(=O)O)cc3)NC(=O)[C@H](Cc3ccc(-c4ccccc4)cc3)NC(=O)[C@H](Cc3ccc(C(=O)O)cc3)NC2=O)c1` [Compound 2625] ({CH2CO}-[2Thi][Phe(4-COOH)]D[Phe(3-Me)][Phe(4-COOH)][Bip]Y(Carboxymethyl)[Orn][dL][Dab][Cha][Val(3-OH)]SC[Dab]-NH2; thioether N-14) yielded an IC50 of 5.7 nM.
`Cc1cccc(C[C@@H]2NC(=O)[C@H](CC(=O)O)NC(=O)[C@H](Cc3cccc(C#N)c3)NC(=O)[C@H](Cc3ccncc3)NC(=O)CSC[C@@H](C(=O)N[C@@H](CCN)C(N)=O)NC(=O)[C@H](CO)NC(=O)[C@H](C(C)(C)O)NC(=O)[C@H](CC3CCCCC3)NC(=O)[C@H](CCN)NC(=O)[C@@H](CC(C)C)NC(=O)[C@H](CCCN)NC(=O)[C@H](Cc3ccc(OCC(=O)O)cc3)NC(=O)[C@H](Cc3ccc(-c4ccccc4)cc3)NC(=O)[C@H](Cc3ccc(C(=O)O)cc3)NC2=O)c1` [Compound 2626] ({CH2CO}-[4Pal][Phe(3-CN)]D[Phe(3-Me)][Phe(4-COOH)][Bip]Y(Carboxymethyl)[Orn][dL][Dab][Cha][Val(3-OH)]SC[Dab]-NH2; thioether N-14) was tested, and the IC50 was 10.7 nM.
